Measurements reported in PMC3063246, “Corticotropin Releasing Factor-Induced CREB Activation in Striatal Neurons Occurs via a Novel Gβγ Signaling Pathway” (PLoS ONE, 2011).
Entries after “also recorded” stand apart in the source; their conditions may differ.

Experiments:
[1] = test system: CRF-induced CREB phosphorylation in striatal neurons; assay: Block of CRF-induced CREB phosphorylation; type: cell-based, rat; settings: 30 min prior and concurrently, CRF 15 min
Rac1 = test system: Rac1; parameters: dose or concentration left out as unconfirmed; settings: cited from earlier work
From the text: (§1) Supplement pone.0018114.s002.xlsx, sheet "Sheet1" | column: Target (notes)

PI3K = settings: cited from earlier work
From the text: as §1

[2] = test system: ISO-induced CREB phosphorylation in striatal neurons; assay: Block of isoproterenol-induced CREB phosphorylation; type: cell-based, rat; settings: gallein 75 µM; ISO 10 µM
Procedure: (§2) Protocols followed are those described previously, using a well-characterized commercially available monoclonal antibody directed against the Ser133 phosphorylated version of CREB (see below), [66], [70]–[72]. Briefly, cultured striatal neurons (8–10 d.i.v.) were incubated in a Tyrode's solution containing TTX (1 µM) and AP-5 (25 µM) at room temperature for 1.5 hr. Unless noted otherwise, cell stimulations were performed as follows: vehicle (15 min); agonist stimulations were 15 min, antagonist exposure was 30 min prior to agonist stimulation, except PTX and CTX (18 hr pre-treatment), and concurrently with agonist stimulation. […] Data were quantified with Leica LAS AF (version 1.9.0; Leica).
(§3) The confocal excitation and detection settings for each experiment were determined using coverslips stimulated for 5 min with 60 mM potassium (60 K) to establish a “ceiling” for pCREB intensity. A baseline was determined via the vehicle (NS) group, so that each assay has an internal control. […] Neurons were readily discriminated from glia via size and morphology (see Figure 1 and Figure S1) and selected randomly using α-tubulin or MAP2 fluorescence, allowing the experimenter to remain blind to the CREB or pCREB signal. […] To analyze pCREB fluorescence intensity, the α-tubulin or MAP2 staining was used to draw a region of interested (ROI) of interest outlining the nucleus of each neuron. […]

Akt/PKB = settings: cited from earlier work
From the text: as §1

Ras = settings: cited from earlier work
From the text: as §1

[3] = test system: BDNF-induced NFAT activation; settings: 100 nM; cited from earlier work
From the text: as §1

[4] = test system: ISO-induced CREB phosphorylation in striatal neurons; parameters: dose or concentration left out as unconfirmed; settings: ref unpublished observations; cited from earlier work
From the text: as §1

[5] = test system: forskolin (FSK)-induced CREB phosphorylation; assay: Block of forskolin-induced CREB phosphorylation; type: cell-based, rat; settings: H89 2 µM; forskolin 25 µM
Procedure: as §2, §3

PKA = settings: cited from earlier work
From the text: as §1

ROCK-II = settings: cited from earlier work
From the text: as §1

MAPKAP = settings: cited from earlier work
From the text: as §1

PKB = settings: cited from earlier work
From the text: as §1

[6] = test system: mGluR1/5 mediated calcium transienst; settings: 5 mM as printed; ref unpublished observations; cited from earlier work
From the text: as §1

## O=C1OC2(c3ccccc31)c1ccc(O)c(O)c1Oc1c2ccc(O)c1O [gallein]
[1]; inhibitor 75 µM
  effect on CRF-induced CREB phosphorylation: CRF failed to induce CREB phosphorylation in the presence of this drug; also recorded: eliminated CRF-induced CREB phosphorylation
Rac1
  Rac1 activation inhibition: inhibits PI3K and Rac1 activation
PI3K
  PI3K inhibition: inhibits PI3K
[2]
  effect on ISO-induced CREB phosphorylation: should not affect ISO-dependent CREB phosphorylation. Indeed, this was in fact the case; also recorded: had no effect on CREB phosphorylation

## CCN(CC)CCCCN1c2ccccc2Oc2ccc(Cl)cc21 [10-DEBC]
[1]; inhibitor 5 µM
  effect on CRF-induced CREB phosphorylation: failed to affect CRF-induced CREB phosphorylation
Akt/PKB
  IC50: 2000 to 6000 nM

## Cc1cc(C(=O)N2CCN(c3cccc(Cl)c3)CC2)n(-c2ccccc2)n1 [XRP44X]
[1]; inhibitor 2 µM
  effect on CRF-induced CREB phosphorylation: failed to affect CRF-induced CREB phosphorylation
Ras
  IC50: 10 to 20 nM

## COC(=O)[C@@]1(O)C[C@H]2O[C@]1(C)n1c3ccccc3c3c4c(c5c6ccccc6n2c5c31)C(=O)NC4 [K252a]
[1]; inhibitor 100 nM
  effect on CRF-induced CREB phosphorylation: failed to affect CRF-induced CREB phosphorylation
[3]
  effect on BDNF-induced NFAT activation: Tyrosine Kinase (100 nM prevents BDNF-induced NFAT activation)

## O=C1Nc2ccc(I)cc2/C1=C/c1cc(Br)c(O)c(Br)c1 [GW5074]
[1]; inhibitor 1 µM, data not shown
  effect on CRF-induced CREB phosphorylation: failed to affect CRF-induced CREB phosphorylation
[4]
  effect on ISO-induced pCREB in striatal neurons: c-Raf (1 mM blocks ISO-induced pCREB in striatal neurons)

## O=S(=O)(NCCNC/C=C/c1ccc(Br)cc1)c1cccc2cnccc12 [H89]
[1]; inhibitor 2 µM
  effect on CRF-induced CREB phosphorylation: failed to block CRF-induced CREB phosphorylation
[5]
  effect on forskolin-induced CREB phosphorylation: attenuated forskolin (FSK)-induced CREB phosphorylation
PKA
  IC50: 135 nM
ROCK-II
  IC50: […]
MAPKAP
  IC50: […]
PKB
  IC50: […]

## CC(=O)OCOC(=O)CN(CC(=O)OCOC(C)=O)c1ccccc1OCCOc1ccccc1N(CC(=O)OCOC(C)=O)CC(=O)OCOC(C)=O [BAPTA-AM]
[1]; inhibitor 5 µM
  effect on CRF-induced CREB phosphorylation: failed to block CRF-induced CREB phosphorylation; also recorded: not affected
[6]
  effect on mGluR1/5 mediated calcium transients: Calcium (5 mM prevents mGluR1/5 mediated calcium transienst)
